Assay results: US7902181B2, “Compounds 010” (AstraZeneca AB, priority 2007, dated 2011)
Where a name gives a salt, the structure may show the parent alone.

Target: Recombinant Human (rh) DPP1 (Homo sapiens, UniProt P53634)
Assay: Fluorescence Assay for Recombinant Human (rh) DPP1
Format: biochemical
Settings: rhDPP1; substrate H-Gly-Arg-AMC; pH5.0; 30 min pre-incubation, 60 min reaction at 22° C.; highest concentration 10 μM; read-out: DPP1 activity, pIC50 (converted)
In short: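 Release of AMC from 100 μM H-Gly-Arg-AMC by rhDPP1 ([…]) in 25 mM piperazine pH 5.0, 50 mM NaCl, 5 mM DTT, 0.01% Triton X-100, 1% DMSO, 22 °C. Inhibitors (12-point half-log, top 10 μM) preincubated 30 min, reaction 60 min, fluorescence at 350/450 nm; pIC50 from 4-parameter logistic fit.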

Sequence of Recombinant Human (rh) DPP1 (P53634 25-463): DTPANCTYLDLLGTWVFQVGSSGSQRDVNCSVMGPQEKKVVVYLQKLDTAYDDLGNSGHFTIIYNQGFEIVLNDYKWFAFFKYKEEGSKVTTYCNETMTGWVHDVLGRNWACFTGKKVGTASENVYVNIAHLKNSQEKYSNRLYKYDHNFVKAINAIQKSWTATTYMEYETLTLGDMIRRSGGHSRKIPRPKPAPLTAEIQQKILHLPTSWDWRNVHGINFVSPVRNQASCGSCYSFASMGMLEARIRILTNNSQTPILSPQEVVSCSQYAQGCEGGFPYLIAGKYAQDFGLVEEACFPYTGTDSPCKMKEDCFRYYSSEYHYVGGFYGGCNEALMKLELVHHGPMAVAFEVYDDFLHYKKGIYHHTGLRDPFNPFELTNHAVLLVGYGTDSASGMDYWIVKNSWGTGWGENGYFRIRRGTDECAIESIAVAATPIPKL

Q: How did the IC50 turn out when `N#Cc1cccc(-c2ccc(C[C@@H](C#N)NC(=O)[C@@H]3CCCCN3)cn2)c1` [Example 78, (S)-N-((S)-1-Cyano-2-(6-(3-cyanophenyl)pyridin-3-yl)ethyl)piperidine-2-carboxamide Trifluoroacetate] was run?
A: 100 nM

Q: For `N#C[C@H](Cc1ccc(-c2ccccc2O)nc1)NC(=O)[C@@H]1CCCCN1` [Example 79, (S)-N-((S)-1-Cyano-2-(6-(2-hydroxyphenyl)pyridin-3-yl)ethyl)piperidine-2-carboxamide], which IC50 is on record?
A: 316 nM

Q: For `CN(C)S(=O)(=O)c1ccc(-c2ccc(C[C@@H](C#N)NC(=O)[C@@H]3CCCCN3)cn2)cc1` [Example 80, (S)-N-((S)-1-Cyano-2-(6-(4-(N,N-dimethylsulfamoyl)phenyl)pyridin-3-yl)ethyl)piperidine-2-carboxamide Trifluoroacetate], which IC50 is on record?
A: 31.6 nM

Q: With `N#C[C@H](Cc1ccc(-c2ccc(C(F)(F)F)cc2)cc1)NC(=O)[C@@H]1CCCCN1` [Example 82, (S)-N-((S)-1-Cyano-2-(4′-(trifluoromethyl)biphenyl-4-yl)ethyl)piperidine-2-carboxamide Trifluoroacetate] as the compound, how does the IC50 read?
A: 5.01 nM

Q: `N#C[C@H](Cc1ccc(-c2cccc(C(=O)N3CCCCC3)c2)cc1)NC(=O)[C@@H]1CCCCN1` [Example 83, (S)-N-((S)-1-Cyano-2-(3′-(piperidine-1-carbonyl)biphenyl-4-yl)ethyl)piperidine-2-carboxamide Trifluoroacetate] was tested. Which IC50 did it give?
A: 200 nM

Q: `N#C[C@H](Cc1ccc(-c2cccc(C(=O)Nc3nccs3)c2)cc1)NC(=O)[C@@H]1CCCCN1` [Example 84, (S)-N-((S)-1-Cyano-2-(3′-(thiazol-2-ylcarbamoyl)biphenyl-4-yl)ethyl)piperidine-2-carboxamide Trifluoroacetate] was tested. Which IC50 did it give?
A: 25.1 nM

Q: With `N#CCCNC(=O)c1cccc(-c2ccc(C[C@@H](C#N)NC(=O)[C@@H]3CCCCN3)cc2)c1` [Example 85, (S)-N-((S)-1-Cyano-2-(3′-(2-cyanoethylcarbamoyl)biphenyl-4-yl)ethyl)piperidine-2-carboxamide] as the compound, how does the IC50 read?
A: 126 nM

Q: For `N#C[C@H](Cc1ccc(-c2cccc(CC(N)=O)c2)cc1)NC(=O)[C@@H]1CCCCN1` [Example 86, (S)-N-((S)-2-(3′-(2-amino-2-oxoethyl)biphenyl-4-yl)-1-cyanoethyl)piperidine-2-carboxamide Trifluoroacetate], which IC50 is on record?
A: 79.4 nM

Q: With `CN(C)S(=O)(=O)c1cccc(-c2ccc(C[C@@H](C#N)NC(=O)[C@@H]3CCCCN3)cc2)c1` [Example 87, (S)-N-((S)-1-Cyano-2-(3′-(N,N-dimethylsulfamoyl)biphenyl-4-yl)ethyl)piperidine-2-carboxamide Trifluoroacetate] as the compound, how does the IC50 read?
A: 50.1 nM

Q: `N#C[C@H](Cc1ccc(-c2cccc(S(=O)(=O)N3CCCC3)c2)cc1)NC(=O)[C@@H]1CCCCN1` [Example 88, (S)-N-((S)-1-Cyano-2-(3′-(pyrrolidin-1-ylsulfonyl)biphenyl-4-yl)ethyl)piperidine-2-carboxamide Trifluoroacetate] was tested. Which IC50 did it give?
A: 63.1 nM

Q: `CS(=O)(=O)NCc1cccc(-c2ccc(C[C@@H](C#N)NC(=O)[C@@H]3CCCCN3)cc2)c1` [Example 89, (S)-N-((S)-1-Cyano-2-(3′-(methylsulfonamidomethyl)biphenyl-4-yl)ethyl)piperidine-2-carboxamide Trifluoroacetate] was tested. Which IC50 did it give?
A: 63.1 nM

Q: How did the IC50 turn out when `CC(=O)NCc1cccc(-c2ccc(C[C@@H](C#N)NC(=O)[C@@H]3CCCCN3)cc2)c1` [Example 90, (S)-N-((S)-2-(3′-(Acetamidomethyl)biphenyl-4-yl)-1-cyanoethyl)-piperidine-2-carboxamide Trifluoroacetate] was run?
A: 126 nM

Q: `N#CC1CCN(S(=O)(=O)c2ccc(-c3ccc(C[C@@H](C#N)NC(=O)[C@@H]4CCCCN4)cc3)cc2)CC1` [Example 91, (S)-N-((S)-1-Cyano-2-(4′-(4-cyanopiperidin-1-ylsulfonyl)biphenyl-4-yl)ethyl)piperidine-2-carboxamide Trifluoroacetate] was tested. Which IC50 did it give?
A: 12.6 nM

Q: How did the IC50 turn out when `CN1CCN(S(=O)(=O)c2ccc(-c3ccc(C[C@@H](C#N)NC(=O)[C@@H]4CCCCN4)cc3)cc2)CC1` [Example 95, (S)-N-((S)-1-Cyano-2-(4′-(4-methylpiperazin-1-ylsulfonyl)biphenyl-4-yl)ethyl)piperidine-2-carboxamide Trifluoroacetate] was run?
A: 3.16 nM

Q: With `Cn1c(=O)oc2ccc(-c3ccc(C[C@@H](C#N)NC(=O)[C@@H]4CCCCN4)cc3)cc21` [Example 96, (S)-N-((S)-1-Cyano-2-(4-(3-methyl-2-oxo-2,3-dihydrobenzo[d]oxazol-5-yl)phenyl)ethyl)piperidine-2-carboxamide] as the compound, how does the IC50 read?
A: 7.94 nM

Q: Which IC50 does the source give for `COCCn1c(=O)oc2ccc(-c3ccc(C[C@@H](C#N)NC(=O)[C@@H]4CCCCN4)cc3)cc21` [Example 97, (S)-N-((S)-1-Cyano-2-(4-(3-(2-methoxyethyl)-2-oxo-2,3-dihydrobenzo[d]-oxazol-5-yl)phenyl)ethyl)piperidine-2-carboxamide] here?
A: 15.8 nM

Q: For `Cn1c(=O)sc2cc(-c3ccc(C[C@@H](C#N)NC(=O)[C@@H]4CCCCN4)cc3)ccc21` [Example 98, (S)-N-((S)-1-Cyano-2-(4-(3-methyl-2-oxo-2,3-dihydrobenzo[d]thiazol-6-yl)phenyl)ethyl)piperidine-2-carboxamide], which IC50 is on record?
A: 50.1 nM

Q: With `N#C[C@H](Cc1ccc(-c2ccc3c(c2)sc(=O)n3CCO)cc1)NC(=O)[C@@H]1CCCCN1` [Example 99, (S)-N-((S)-1-Cyano-2-(4-(3-(2-hydroxyethyl)-2-oxo-2,3-dihydrobenzo[d]thiazol-6-yl)phenyl)ethyl)piperidine-2-carboxamide] as the compound, how does the IC50 read?
A: 63.1 nM

Q: For `N#Cc1ccc(-c2cccc(C[C@@H](C#N)NC(=O)[C@@H]3CCCCN3)c2)cc1` [Example 100, (S)-N-((S)-1-Cyano-2-(4′-cyanobiphenyl-3-yl)ethyl)piperidine-2-carboxamide Trifluoroacetate], which IC50 is on record?
A: 1000 nM

Q: With `CS(=O)(=O)c1cc(-c2ccc(C[C@@H](C#N)NC(=O)[C@@H]3CCCCN3)cc2)ccc1CC#N` [Example 101, (S)-N-((S)-1-Cyano-2-(4′-(cyanomethyl)-3′-(methylsulfonyl)biphenyl-4-yl)ethyl)-piperidine-2-carboxamide Trifluoroacetate] as the compound, how does the IC50 read?
A: 39.8 nM

Q: `N#C[C@H](Cc1ccc(S(=O)(=O)c2ccccc2)cc1)NC(=O)[C@@H]1CCCCN1` [Example 102, (S)-N-((S)-1-Cyano-2-(4-(phenylsulfonyl)phenyl)ethyl)piperidine-2-carboxamide] was tested. Which IC50 did it give?
A: 3160 nM

Q: `N#Cc1ccc(-c2ccc([C@H]3C[C@@]3(C#N)NC(=O)[C@@H]3CCCCN3)cc2)cc1` [Example 103, (S)-N-((1R,2R)-1-Cyano-2-(4′-cyanobiphenyl-4-yl)cyclopropyl)piperidine-2-carboxamide Trifluoroacetate] was tested. Which IC50 did it give?
A: 158 nM

Q: With `N#C[C@@]1(NC(=O)[C@@H]2CCCCN2)C[C@@H]1c1ccc(-c2ccc(S(=O)(=O)N3CCC3)cc2)cc1` [Example 104, (S)-N-((1R,2R)-2-(4′-(Azetidin-1-ylsulfonyl)biphenyl-4-yl)-1-cyanocyclopropyl)piperidine-2-carboxamide Trifluoroacetate] as the compound, how does the IC50 read?
A: 79.4 nM

Q: Which IC50 does the source give for `N#C[C@H](Cc1ccc(-c2ccc(OC(F)(F)F)cc2)cc1)NC(=O)[C@@H]1CCCCN1` [Example 105, (S)-N-((S)-1-Cyano-2-(4′-(trifluoromethoxy)biphenyl-4-yl)ethyl)piperidine-2-carboxamide] here?
A: 20 nM

Q: `CS(=O)(=O)c1ccc(-c2ccc(C[C@@H](C#N)NC(=O)[C@@H]3CCCCN3)cc2)cc1` [Example 106, (S)-N-((S)-1-Cyano-2-(4′-(methylsulfonyl)biphenyl-4-yl)ethyl)piperidine-2-carboxamide] was tested. Which IC50 did it give?
A: 12.6 nM

Q: How did the IC50 turn out when `CCN1CCN(S(=O)(=O)c2ccc(-c3ccc(CC(C#N)NC(=O)[C@@H]4CCCCN4)cc3)cc2)CC1` (stereo partly drawn) [Example 107, ((2S)-N-(1-Cyano-2-(4′-(4-ethylpiperazin-1-ylsulfonyl)biphenyl-4-yl)ethyl)piperidine-2-carboxamide Ditrifluoroacetate] was run?
A: 5.01 nM

Q: For `CN1CCCN(S(=O)(=O)c2ccc(-c3ccc(CC(C#N)NC(=O)[C@@H]4CCCCN4)cc3)cc2)CC1` (stereo partly drawn) [Example 108, (2S)-N-(1-Cyano-2-(4′-(4-methyl-1,4-diazepan-1-ylsulfonyl)biphenyl-4-yl)ethyl)piperidine-2-carboxamide Ditrifluoroacetate], which IC50 is on record?
A: 31.6 nM

Q: Which IC50 does the source give for `N#C[C@H](Cc1ccc(-c2cccc(CN3CCOCC3)c2)cc1)NC(=O)[C@@H]1CCCCN1` [Example 109, (S)-N-((S)-1-Cyano-2-(3′-(morpholinomethyl)biphenyl-4-yl)ethyl)piperidine-2-carboxamide Ditrifluoroacetate] here?
A: 158 nM

Q: `N#C[C@H](Cc1ccc(-c2ccc3c(c2)CCNC3)cc1)NC(=O)[C@@H]1CCCCN1` [Example 110, (S)-N-((S)-1-Cyano-2-(4-(1,2,3,4-tetrahydroisoquinolin-6-yl)phenyl)ethyl)piperidine-2-carboxamide Ditrifluoroacetate] was tested. Which IC50 did it give?
A: 158 nM
